Assay [1] deals with T1, Free fatty acid receptor 3 (Rattus norvegicus) (UniProt B2GV46).
T1 sequence (whole entry): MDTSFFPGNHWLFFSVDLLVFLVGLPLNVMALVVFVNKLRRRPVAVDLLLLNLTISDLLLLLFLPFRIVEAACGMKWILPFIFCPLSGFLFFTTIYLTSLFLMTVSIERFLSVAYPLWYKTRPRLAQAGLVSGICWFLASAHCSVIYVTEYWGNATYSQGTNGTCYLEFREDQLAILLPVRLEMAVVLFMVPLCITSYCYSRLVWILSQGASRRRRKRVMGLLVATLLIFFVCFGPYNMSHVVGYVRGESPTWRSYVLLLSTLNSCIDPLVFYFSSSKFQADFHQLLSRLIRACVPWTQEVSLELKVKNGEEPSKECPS
As to the kind of experiment: Agonist activity at rat GPR41 expressed in Saccharomyces cerevisiae MMY11 co-expressing chimeric Gpa1/Galpha12 at 0.5 mM to 50 mM incubated for 48 hrs by induction of FUSl-lacZ and FUS1-HIS3 reporter gene induction based pheromone response pathway coupled assay. In general terms: Reporter assays use an easily measured gene product as a stand-in for the process of interest.

Assay [2] deals with T1, Free fatty acid receptor 3 (Rattus norvegicus). As to the kind of experiment: Agonist activity at rat GPR41 expressed in HEK293T cell membranes co-expressing Go1alpha protein assessed as stimulation of [35S]GTPgammaS binding at 0.1 microM to 0.1 M incubated for 30 mins by scintillation counting method. It counts as functional. Conditions: HEK-293T. On the technique in general: GTPγS is a poorly hydrolysed GTP analogue; its binding reports G protein activation.

Assay [3] shares this target. The assay is described as follows: Agonist activity at rat GPR41 expressed in Saccharomyces cerevisiae MMY11 co-expressing chimeric Gpa1/Galpha13 at 0.5 mM to 50 mM incubated for 48 hrs by induction of FUSl-lacZ and FUS1-HIS3 reporter gene induction based pheromone response pathway coupled assay.
Assay [4] has the same target. The assay is described as follows: Agonist activity at rat GPR41 expressed in Saccharomyces cerevisiae MMY11 co-expressing chimeric Gpa1/Ga0 at 0.5 mM to 50 mM incubated for 48 hrs by induction of FUSl-lacZ and FUS1-HIS3 reporter gene induction based pheromone response pathway coupled assay.
Assay [5] addresses T2, Free fatty acid receptor 3 (Homo sapiens) (UniProt O14843).
T2 sequence (whole entry): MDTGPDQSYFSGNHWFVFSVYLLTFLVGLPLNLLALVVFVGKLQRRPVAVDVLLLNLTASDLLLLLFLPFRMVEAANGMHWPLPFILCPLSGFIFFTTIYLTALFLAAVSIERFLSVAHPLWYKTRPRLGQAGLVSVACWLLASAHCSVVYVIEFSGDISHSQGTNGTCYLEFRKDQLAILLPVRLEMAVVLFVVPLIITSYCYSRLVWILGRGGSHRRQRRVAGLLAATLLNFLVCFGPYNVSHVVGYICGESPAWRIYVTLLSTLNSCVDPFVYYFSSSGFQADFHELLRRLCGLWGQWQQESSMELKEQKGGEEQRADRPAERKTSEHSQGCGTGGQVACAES
The assay is described as follows: Agonist activity at human GPR41 expressed in HEK293T cell membranes co-expressing Go1alpha protein assessed as stimulation of [35S]GTPgammaS binding at 0.1 microM to 0.1 M incubated for 30 mins by scintillation counting method. It counts as functional. Conditions: HEK-293T.

In assay [6] the target is T1, Free fatty acid receptor 3 (Rattus norvegicus). The assay is described as follows: Agonist activity at GPR41 in rat primary adipocytes assessed as inhibition of isoprenaline-induced lipolysis by measuring glycerol level after 2 hrs. Type of assay: cell-based.
Assay [7] concerns the target T2, Free fatty acid receptor 3 (Homo sapiens). As to the kind of experiment: Agonist activity at human GPR41 expressed in HEK293T cell membranes co-expressing Go1lpha protein assessed as stimulation of [35S]GTPgammaS binding at 1 microM to 0.1 M incubated for 30 mins by scintillation counting method. Type of assay: functional. Conditions: HEK-293T.

The source of these data is ChEMBL document CHEMBL3880438, “Identification of modulators of GPR41 or GPR42 activity” (2001).

Molecules are shown by their SMILES. Active and inactive are the calls of the source. The calls are words filed in the database; no cut-off is given here.

In the case of `CCC(=O)[O-].[Na+]` [SODIUM PROPIONATE], the outcome in assay [1], in assay [2], in assay [3], in assay [4] and in assay [5] was Active. Further, in assay [6], the Activity result is “Dose-dependent effect”.
As to `CC(=O)[O-].N.O=CO.[Na+]`, the result in assay [2] and in assay [5] was Active. For the same compound, in assay [6], the Activity entry was “Dose-dependent effect”.
With `CCCC(=O)[O-].CCCCC(=O)[O-].[K+].[Na+]`, the result in assay [5] was Active.
Turning to `CC(O)CC(=O)O` (racemic), in assay [7], the result was Active.
Take `CC(=O)[O-].[Na+]`: the Activity result in assay [6] is “Dose-dependent effect”.
On to `CCCCC(=O)[O-].[K+]`, for which the result in assay [6] was Active.
